Results reported in ChEMBL document CHEMBL1201862, “PubChem BioAssay data set” (2004).
The source made the active and inactive calls.

Tests used:
[1] = target: Mitogen-activated protein kinase 13 (Homo sapiens, UniProt O15264); type: functional
[2] = target: Calcium/calmodulin-dependent protein kinase type II subunit alpha (Homo sapiens, UniProt Q9UQM7); assay: Navigating the Kinome. Panel member name: CAMK2A; type: functional
[3] = target: Tyrosine-protein kinase Fer (Homo sapiens, UniProt P16591); type: functional;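 further: FER tested as one member of a kinome panel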
Tyrosine-protein kinase Fer, sequence (P16591 whole entry): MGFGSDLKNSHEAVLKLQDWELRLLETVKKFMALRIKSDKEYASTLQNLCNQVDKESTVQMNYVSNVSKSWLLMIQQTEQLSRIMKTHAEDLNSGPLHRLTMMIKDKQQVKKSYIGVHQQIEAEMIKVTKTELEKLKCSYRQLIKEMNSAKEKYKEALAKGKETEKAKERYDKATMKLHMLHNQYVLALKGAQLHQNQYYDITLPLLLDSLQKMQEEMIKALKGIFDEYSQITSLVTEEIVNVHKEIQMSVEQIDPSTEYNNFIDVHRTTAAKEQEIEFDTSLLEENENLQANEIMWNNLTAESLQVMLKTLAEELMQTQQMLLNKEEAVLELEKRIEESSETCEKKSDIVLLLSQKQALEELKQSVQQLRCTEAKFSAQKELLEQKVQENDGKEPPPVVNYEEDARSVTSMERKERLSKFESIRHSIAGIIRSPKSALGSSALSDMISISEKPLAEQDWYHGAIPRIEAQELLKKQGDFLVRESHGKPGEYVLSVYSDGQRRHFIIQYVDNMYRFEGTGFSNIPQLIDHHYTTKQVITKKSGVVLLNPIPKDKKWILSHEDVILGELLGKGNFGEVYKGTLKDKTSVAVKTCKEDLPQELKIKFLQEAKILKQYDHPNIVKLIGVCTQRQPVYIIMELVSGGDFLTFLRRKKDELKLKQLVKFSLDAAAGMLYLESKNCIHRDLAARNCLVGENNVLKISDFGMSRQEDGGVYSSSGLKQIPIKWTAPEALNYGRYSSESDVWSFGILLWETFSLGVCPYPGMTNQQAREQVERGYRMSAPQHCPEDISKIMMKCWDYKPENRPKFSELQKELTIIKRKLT

[4] = target: MAP kinase-activated protein kinase 3 (Homo sapiens, UniProt Q16644); type: functional;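 further: value comes from a kinome-wide profiling panel in which MAPKAPK3 is one of the panel members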
MAP kinase-activated protein kinase 3, sequence (Q16644 whole entry): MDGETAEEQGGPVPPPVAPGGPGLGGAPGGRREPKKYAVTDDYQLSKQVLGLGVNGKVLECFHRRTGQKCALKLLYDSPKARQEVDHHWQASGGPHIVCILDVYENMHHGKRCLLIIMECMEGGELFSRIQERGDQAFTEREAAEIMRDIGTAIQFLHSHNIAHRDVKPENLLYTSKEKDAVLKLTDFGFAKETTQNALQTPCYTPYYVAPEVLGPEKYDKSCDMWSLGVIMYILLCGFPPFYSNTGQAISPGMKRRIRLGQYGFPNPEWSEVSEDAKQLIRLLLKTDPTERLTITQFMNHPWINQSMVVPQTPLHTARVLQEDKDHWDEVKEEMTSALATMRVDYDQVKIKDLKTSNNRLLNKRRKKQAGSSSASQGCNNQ

[5] = target: Maternal embryonic leucine zipper kinase (Homo sapiens, UniProt Q14680); type: functional
Maternal embryonic leucine zipper kinase, sequence (Q14680 whole entry): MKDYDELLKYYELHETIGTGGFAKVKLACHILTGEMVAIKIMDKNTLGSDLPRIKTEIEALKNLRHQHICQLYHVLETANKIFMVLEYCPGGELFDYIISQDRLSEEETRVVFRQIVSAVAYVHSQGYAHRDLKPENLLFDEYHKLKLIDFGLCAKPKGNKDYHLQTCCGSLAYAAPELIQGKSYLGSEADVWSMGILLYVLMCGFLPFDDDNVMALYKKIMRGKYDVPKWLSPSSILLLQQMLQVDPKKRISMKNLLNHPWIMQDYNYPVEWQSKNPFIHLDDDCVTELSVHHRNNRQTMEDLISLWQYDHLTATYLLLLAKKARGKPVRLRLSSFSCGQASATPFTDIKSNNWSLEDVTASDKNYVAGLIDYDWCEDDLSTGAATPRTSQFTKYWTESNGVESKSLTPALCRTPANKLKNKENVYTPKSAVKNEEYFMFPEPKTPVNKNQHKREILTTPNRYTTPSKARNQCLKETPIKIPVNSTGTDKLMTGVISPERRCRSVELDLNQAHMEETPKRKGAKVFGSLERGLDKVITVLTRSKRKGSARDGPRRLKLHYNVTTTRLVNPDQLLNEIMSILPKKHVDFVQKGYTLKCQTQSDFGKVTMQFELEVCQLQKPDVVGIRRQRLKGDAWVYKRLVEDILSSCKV

[6] = target: Ribosomal protein S6 kinase alpha-3 (Homo sapiens, UniProt P51812); type: functional;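 further: measured within a kinome-wide profiling panel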
[7] = target: Proto-oncogene tyrosine-protein kinase receptor Ret (Homo sapiens, UniProt P07949); type: functional;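 further: measured within a kinome-wide profiling panel, RET as the panel member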
[8] = target: Protein kinase C zeta type (Homo sapiens, UniProt Q05513); type: functional;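 further: measured as one member of a broad kinase profiling panel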
Protein kinase C zeta type, sequence (Q05513 whole entry): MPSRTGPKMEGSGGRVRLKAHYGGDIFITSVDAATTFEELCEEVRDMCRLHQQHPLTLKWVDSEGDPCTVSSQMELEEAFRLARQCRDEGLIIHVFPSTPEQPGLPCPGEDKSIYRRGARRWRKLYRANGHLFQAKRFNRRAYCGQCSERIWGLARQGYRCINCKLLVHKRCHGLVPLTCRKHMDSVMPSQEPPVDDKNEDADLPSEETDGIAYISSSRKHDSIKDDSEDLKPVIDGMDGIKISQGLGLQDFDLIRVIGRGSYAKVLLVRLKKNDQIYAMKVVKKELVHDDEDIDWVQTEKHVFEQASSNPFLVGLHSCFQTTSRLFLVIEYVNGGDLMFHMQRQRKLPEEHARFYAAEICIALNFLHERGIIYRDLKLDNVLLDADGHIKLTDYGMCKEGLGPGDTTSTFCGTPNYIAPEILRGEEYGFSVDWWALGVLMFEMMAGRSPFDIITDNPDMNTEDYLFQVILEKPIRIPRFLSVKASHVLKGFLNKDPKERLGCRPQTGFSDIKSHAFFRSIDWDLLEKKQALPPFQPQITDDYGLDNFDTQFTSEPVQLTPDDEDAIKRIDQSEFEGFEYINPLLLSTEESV

[9] = target: Cyclin-dependent kinase 7 (Homo sapiens, UniProt P50613); type: functional;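 further: value comes from a kinome-wide kinase profiling panel in which CDK7 is one member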
Aurora kinase A = Aurora kinase A (Homo sapiens, UniProt O14965); type: functional;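 further: value from the Navigating the Kinome kinase panel profiling, panel entry STK6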
[10] = target: Phosphorylase b kinase gamma catalytic chain, liver/testis isoform (Homo sapiens, UniProt P15735); type: functional;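 further: PHKG2 measured as one member of a kinome-wide kinase panel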
Phosphorylase b kinase gamma catalytic chain, liver/testis isoform, sequence (P15735 whole entry, canonical isoform): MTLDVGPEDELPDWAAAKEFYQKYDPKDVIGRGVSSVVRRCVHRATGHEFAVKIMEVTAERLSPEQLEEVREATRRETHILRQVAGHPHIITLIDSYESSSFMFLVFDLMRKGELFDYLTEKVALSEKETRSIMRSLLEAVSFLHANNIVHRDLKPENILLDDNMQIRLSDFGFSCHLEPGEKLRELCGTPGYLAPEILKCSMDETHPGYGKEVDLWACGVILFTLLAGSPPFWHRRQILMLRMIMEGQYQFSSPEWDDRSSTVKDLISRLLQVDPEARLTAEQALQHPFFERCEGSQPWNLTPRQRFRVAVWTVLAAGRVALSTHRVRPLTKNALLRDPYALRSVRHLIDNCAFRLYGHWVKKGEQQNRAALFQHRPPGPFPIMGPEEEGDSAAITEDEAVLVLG

[11] = target: Vascular endothelial growth factor receptor 2 (Homo sapiens, UniProt P35968); type: functional
[12] = target: Cell division cycle 7-related protein kinase (Homo sapiens, UniProt O00311); type: functional;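 further: value obtained from a kinome-wide kinase panel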
[13] = target: Protein kinase C theta type (Homo sapiens, UniProt Q04759); assay: Navigating the Kinome. Panel member name: PRKCQ; type: functional
Protein kinase C theta type, sequence (Q04759 whole entry): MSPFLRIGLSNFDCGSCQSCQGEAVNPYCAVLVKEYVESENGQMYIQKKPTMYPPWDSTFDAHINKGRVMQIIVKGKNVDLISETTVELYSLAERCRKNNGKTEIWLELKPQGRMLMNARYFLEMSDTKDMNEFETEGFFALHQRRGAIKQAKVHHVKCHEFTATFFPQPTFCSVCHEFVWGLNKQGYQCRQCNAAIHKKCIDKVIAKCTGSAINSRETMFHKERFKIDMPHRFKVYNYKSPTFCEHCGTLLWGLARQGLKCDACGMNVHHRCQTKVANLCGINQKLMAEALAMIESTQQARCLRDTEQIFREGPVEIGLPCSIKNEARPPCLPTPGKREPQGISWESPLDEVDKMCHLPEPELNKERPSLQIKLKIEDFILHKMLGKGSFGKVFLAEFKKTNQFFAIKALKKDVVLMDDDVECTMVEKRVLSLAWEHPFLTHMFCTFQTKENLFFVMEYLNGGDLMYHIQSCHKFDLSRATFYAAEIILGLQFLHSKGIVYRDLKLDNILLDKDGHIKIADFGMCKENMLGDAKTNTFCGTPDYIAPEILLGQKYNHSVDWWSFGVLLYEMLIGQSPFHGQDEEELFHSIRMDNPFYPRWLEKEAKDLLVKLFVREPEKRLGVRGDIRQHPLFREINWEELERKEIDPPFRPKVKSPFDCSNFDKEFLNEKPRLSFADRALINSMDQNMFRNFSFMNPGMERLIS

SRSF protein kinase 1 = SRSF protein kinase 1 (Homo sapiens, UniProt Q96SB4); type: functional;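 further: measured as one member of a kinome-wide kinase profiling panel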
[14] = target: Dual specificity protein kinase CLK4 (Homo sapiens, UniProt Q9HAZ1); type: functional
Dual specificity protein kinase CLK4, sequence (Q9HAZ1 whole entry): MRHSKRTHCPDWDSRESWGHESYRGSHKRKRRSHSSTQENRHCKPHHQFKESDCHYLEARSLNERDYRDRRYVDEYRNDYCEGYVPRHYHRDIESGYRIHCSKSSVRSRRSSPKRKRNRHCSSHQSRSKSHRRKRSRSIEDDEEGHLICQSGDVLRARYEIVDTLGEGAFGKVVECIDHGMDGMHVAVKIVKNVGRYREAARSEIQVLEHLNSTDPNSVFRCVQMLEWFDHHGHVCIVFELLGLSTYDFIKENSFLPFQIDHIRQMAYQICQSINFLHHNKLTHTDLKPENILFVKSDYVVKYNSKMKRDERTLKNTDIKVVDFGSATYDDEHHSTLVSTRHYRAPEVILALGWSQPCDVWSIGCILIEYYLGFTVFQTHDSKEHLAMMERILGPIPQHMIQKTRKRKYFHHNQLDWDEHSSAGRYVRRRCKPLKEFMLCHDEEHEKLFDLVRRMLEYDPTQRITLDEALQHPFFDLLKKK

[15] = target: T1, Rac GTPase-activating protein 1 (Homo sapiens, UniProt Q9H0H5); assay: blockers of MgcRacGAP-driven Rac1 GTP hydrolysis – biochemical, ADP Hunter fluorescence, primary and confirmatory, confirmation (AID 624330); type: functional
T1 sequence (Q9H0H5 whole entry): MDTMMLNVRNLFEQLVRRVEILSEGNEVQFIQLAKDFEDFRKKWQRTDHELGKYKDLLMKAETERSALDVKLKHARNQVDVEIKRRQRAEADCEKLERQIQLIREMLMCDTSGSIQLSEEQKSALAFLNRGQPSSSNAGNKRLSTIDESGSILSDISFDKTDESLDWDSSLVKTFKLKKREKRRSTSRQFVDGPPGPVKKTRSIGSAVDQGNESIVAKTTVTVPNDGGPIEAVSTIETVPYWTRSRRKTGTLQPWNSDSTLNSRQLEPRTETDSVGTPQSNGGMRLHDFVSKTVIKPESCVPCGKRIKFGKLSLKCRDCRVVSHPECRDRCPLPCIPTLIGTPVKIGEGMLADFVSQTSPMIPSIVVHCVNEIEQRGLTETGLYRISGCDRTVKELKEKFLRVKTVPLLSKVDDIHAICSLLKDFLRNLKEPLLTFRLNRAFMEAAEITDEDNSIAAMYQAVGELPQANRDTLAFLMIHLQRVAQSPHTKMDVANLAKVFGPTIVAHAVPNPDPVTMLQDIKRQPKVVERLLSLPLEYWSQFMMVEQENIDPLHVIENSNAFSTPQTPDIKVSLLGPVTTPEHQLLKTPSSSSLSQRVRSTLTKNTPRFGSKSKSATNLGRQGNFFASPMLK

CAAX prenyl protease 1 = CAAX prenyl protease 1 (Saccharomyces cerevisiae S288c, UniProt P47154); assay: yeast CAAX protease Ste24 inhibition – biochemical, S. cerevisiae, plate reader, cherry-pick, dose response (AID 488815)
[16] = target: T2, Apoptotic protease-activating factor 1 (Homo sapiens, UniProt O14727); type: functional
T2 sequence (O14727 whole entry): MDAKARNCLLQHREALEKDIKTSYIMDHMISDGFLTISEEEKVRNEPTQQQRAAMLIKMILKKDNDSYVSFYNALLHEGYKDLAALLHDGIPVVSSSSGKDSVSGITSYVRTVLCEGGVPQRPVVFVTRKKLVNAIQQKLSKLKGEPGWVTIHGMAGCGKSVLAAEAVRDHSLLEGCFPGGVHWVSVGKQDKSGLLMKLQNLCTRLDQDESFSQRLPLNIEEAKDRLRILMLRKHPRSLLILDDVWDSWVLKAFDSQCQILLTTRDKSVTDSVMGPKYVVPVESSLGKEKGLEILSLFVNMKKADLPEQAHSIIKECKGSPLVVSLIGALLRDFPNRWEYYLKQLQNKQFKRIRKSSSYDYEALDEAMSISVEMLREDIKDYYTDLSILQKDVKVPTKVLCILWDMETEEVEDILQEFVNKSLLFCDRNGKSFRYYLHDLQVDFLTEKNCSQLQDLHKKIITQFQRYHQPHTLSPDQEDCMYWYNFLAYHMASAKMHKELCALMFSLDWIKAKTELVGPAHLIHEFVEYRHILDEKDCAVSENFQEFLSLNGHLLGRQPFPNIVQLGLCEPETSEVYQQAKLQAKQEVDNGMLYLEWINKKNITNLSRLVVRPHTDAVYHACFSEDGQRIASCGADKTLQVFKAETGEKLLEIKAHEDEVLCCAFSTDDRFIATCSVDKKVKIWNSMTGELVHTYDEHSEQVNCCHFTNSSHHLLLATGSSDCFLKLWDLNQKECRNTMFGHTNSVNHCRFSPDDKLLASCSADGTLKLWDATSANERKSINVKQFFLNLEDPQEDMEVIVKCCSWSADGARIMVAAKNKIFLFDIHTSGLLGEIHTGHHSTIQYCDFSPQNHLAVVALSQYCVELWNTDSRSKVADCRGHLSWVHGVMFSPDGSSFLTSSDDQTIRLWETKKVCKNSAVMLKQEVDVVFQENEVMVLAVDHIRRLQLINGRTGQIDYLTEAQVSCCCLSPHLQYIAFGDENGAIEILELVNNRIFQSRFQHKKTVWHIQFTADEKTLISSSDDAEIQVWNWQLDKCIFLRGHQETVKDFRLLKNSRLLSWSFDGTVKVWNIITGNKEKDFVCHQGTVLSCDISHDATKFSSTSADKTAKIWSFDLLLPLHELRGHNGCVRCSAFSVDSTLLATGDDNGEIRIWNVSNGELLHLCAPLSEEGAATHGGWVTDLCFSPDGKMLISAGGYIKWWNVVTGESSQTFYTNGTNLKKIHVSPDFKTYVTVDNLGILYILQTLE

Mitogen-activated protein kinase 13, sequence (O15264 whole entry): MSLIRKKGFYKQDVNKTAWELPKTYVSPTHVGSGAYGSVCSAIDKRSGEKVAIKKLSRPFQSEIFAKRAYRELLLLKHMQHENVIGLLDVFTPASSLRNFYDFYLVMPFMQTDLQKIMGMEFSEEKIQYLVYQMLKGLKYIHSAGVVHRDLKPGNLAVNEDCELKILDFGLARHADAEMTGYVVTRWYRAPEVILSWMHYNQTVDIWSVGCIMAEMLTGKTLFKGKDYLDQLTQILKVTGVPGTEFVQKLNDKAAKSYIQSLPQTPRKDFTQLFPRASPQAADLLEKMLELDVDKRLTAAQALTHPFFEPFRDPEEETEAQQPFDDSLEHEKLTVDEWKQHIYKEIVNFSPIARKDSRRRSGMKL
Calcium/calmodulin-dependent protein kinase type II subunit alpha, sequence (Q9UQM7 whole entry): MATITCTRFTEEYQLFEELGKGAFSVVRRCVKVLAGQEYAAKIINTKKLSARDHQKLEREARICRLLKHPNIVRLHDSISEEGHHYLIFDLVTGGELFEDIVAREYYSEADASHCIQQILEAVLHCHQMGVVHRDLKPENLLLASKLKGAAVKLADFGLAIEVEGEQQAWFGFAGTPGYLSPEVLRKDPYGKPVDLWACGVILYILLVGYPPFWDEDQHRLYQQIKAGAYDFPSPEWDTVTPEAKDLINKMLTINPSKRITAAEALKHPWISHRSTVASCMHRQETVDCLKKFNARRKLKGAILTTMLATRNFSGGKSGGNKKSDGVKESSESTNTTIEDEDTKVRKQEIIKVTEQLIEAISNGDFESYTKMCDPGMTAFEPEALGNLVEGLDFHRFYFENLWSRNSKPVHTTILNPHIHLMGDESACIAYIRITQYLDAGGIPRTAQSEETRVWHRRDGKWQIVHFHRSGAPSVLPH

`CN1CCN(c2nc(C3=C(c4c[nH]c5ccccc45)C(=O)NC3=O)c3ccccc3n2)CC1` [SOTRASTAURIN] was tested, and the Ki [1] was > 7.94 µM (inactive), the Ki [2] was 3.16 µM (active) and the Ki [3] was 0.316 µM (active). For the same compound, the Ki [4] was > 10 µM (inactive), the Ki [5] was > 1.58 µM (inactive) and the Ki [6] was 0.126 µM (active). For the same compound, the Ki [7] was > 2 µM (inactive), the Ki [8] was 0.0631 µM (active) and the Ki [9] was > 3.98 µM (inactive). The Ki (Aurora kinase A) was > 1.58 µM (inactive), the Ki [10] was > 5.01 µM (inactive) and the Ki [11] was 0.398 µM (active). For the same compound, the Ki [12] was > 1.26 µM (inactive), the Ki [13] was 0.000631 µM (active) and the Ki (SRSF protein kinase 1) was > 7.94 µM (inactive). The Ki [14] was > 5.01 µM (inactive).
In the case of `CCN1/C(=C\c2ccc3ccccc3[n+]2CC)Sc2cc(C)ccc21`, the IC50 [15] was 81.3 µM (active).
`CCCCCCCCCCOC(=O)C[n+]1c(COc2ccc(C)cc2)n(C)c2ccccc21` was tested, and the AC50 (CAAX prenyl protease 1) was 7.21 µM (active) and the IC50 [16] was 10.8 µM (active).
